Assay results from patent US12679878B2, “CRF2 receptor agonists and their use in therapy” (SANOFI, priority 2020, dated 2026).
≈ marks a conversion by molar mass, not a printed value. Where two headings read alike, the source gives them in different places. Starred links: 1 amine or outer side, 2 acyl side, 3 side chain; linkers in the order of their positions; H or OH if unused. Non-standard residues stand in square brackets, D forms with d. Residues, ends and D or L forms follow the SMILES beside them. Groups on a side chain read outwards from the residue. *: point of attachment. C16 diacid = O=C(O)CCCCCCCCCCCCCCC(=O)*; γGlu = O=C(O)[C@H](CCC(=O)[*:2])N[*:1]; Aib = CC(C)(N)C(=O)O

Key:
[1] = Buffer solubility by LC-UV, pH 7.4 phosphate and pH 4.5 acetate (Example 19.11); assay type: physicochemical; settings: target 10 mg/mL
How it was run: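 Powders dissolved at a target 10 mg/mL in 100 mM phosphate pH 7.4 or 100 mM acetate pH 4.5, held 1 h at room temperature, then centrifuged. Diluted supernatant analysed by LC-UV; solubility from peak area against the same compound at 0.5 mg/ml in water:acetonitrile 1:1 with 0.1% formic acid.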

[2] = In vitro plasma stability, human plasma (Example 19.11); assay type: in vitro ADME; parameters: dose or concentration left out as unconfirmed; settings: 37° C.
Description: (§1) In vitro plasma metabolic stability was studied in male Sprague Dawley rats and human. Test compound were incubated […] for 2 hours at 37° C. At each time point (0, 0.25, 1 and 2 h), samples were prepared for analysis by means of a single step protein precipitation technique by adding 150 μL of ethanol, 0.1% formic acid to 50 μL aliquots of plasma. Samples were mixed by vortex for homogeneity and then subjected to centrifugation at 14000 rpm for 15 min. The supernatant (100 μL) was collected, diluted with 100 μL of water, 0.1% formic acid and analyzed by LC-HRMS (TripleTOF 6600+, AB Sciex). For each test compound, the area ratios at each time point were compared to the 0 h area ratio and converted to a percentage remaining.

human CRF2α receptor = target: T1, human CRF2α receptor (Homo sapiens, UniProt Q13324); experiment: cAMP agonism at human CRF2α receptor in TeloHEAC cells, FA modified peptides (Example 19.9); assay type: cell-based; settings: 0% HSA, relative to urocortin 2
T1 construct: expressed in transfected cells; host or cells: TeloHEAC
T1 sequence (Q13324 1-411): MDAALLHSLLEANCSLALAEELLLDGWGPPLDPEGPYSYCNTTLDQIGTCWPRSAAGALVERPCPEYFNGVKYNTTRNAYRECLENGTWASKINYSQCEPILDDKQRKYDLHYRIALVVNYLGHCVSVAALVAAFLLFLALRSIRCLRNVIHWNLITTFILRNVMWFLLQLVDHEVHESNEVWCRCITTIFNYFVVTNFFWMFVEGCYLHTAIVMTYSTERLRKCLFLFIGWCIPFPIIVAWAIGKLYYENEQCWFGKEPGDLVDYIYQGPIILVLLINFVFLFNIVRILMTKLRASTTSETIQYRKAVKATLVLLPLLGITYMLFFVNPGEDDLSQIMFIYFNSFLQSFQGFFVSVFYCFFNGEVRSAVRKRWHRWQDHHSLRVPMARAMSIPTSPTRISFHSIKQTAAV
How it was run: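 Efficacy and EC50 are referenced to 100 nM urocortin 2 as 100%, with cAMP measured as the 665/620 nm HTRF ratio after 1 h at room temperature. Compounds (0.5 mM DMSO stock, 16 twofold dilutions) acted 30 min at 37 °C on CRF2α-expressing TeloHEAC cells, buffer containing IBMX and 0% or 0.2% HSA.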

[3] = Chemical stability as % loss by LC-UV, 28 days 40° C. vs 5° C. (Example 19.11); assay type: physicochemical
Description: As for example 15 above, also the chemical stability of representative examples of these FA modified peptides has been assessed, using LC-UV instead of light scattering. Solubility and chemical stability were studied in 100 mM phosphate buffer (pH 7.4) and 100 mM acetate buffer (pH 4.5). Test compound powders were dissolved in both buffers at a target concentration of 10 mg/mL and incubated for 1 hour at room temperature. After centrifugation at 2500 rcf for 15 minutes, […] of supernatant was diluted with […] of the incubation buffer and analyzed by LC-UV (Acquity UPLC-DAD, Waters). Solubility was calculated by comparing the peak area of the test compound in the buffer sample with the peak area of the same compound dissolved at 0.5 mg/ml in water:acetonitrile 1:1, 0.1% formic acid.
From the centrifuged supernatant, two additional […] aliquots were collected and diluted with […] of incubation buffer. One aliquot was stored at 5° C., while the other was stored at 40° C. After 28 days, the samples were analyzed by LC-UV. Chemical stability was calculated as % loss using the following equations: • Chemical stability (as % loss)=[(purity after 28 days at 5° C.)−(purity after 28 days at 40° C.)]×100/(purity after 28 days at 5° C.) % purity=[(peak area compound)×100/(total peak area)]

CRF1R receptor = target: T2, CRF1R receptor (Homo sapiens, UniProt P34998); experiment: cAMP activity at anti-target CRF1R, CHO-K1 cell line clone 2 (Example 19.10); assay type: cell-based; settings: for Emax: 100% = Sauvagine at 100 nM; for CRF1/CRF2 ratio: ratio of CRF1 EC50 to CRF2 EC50
T2 construct: host or cells: CHO-K1 clone 2
T2 sequence (P34998 24-415): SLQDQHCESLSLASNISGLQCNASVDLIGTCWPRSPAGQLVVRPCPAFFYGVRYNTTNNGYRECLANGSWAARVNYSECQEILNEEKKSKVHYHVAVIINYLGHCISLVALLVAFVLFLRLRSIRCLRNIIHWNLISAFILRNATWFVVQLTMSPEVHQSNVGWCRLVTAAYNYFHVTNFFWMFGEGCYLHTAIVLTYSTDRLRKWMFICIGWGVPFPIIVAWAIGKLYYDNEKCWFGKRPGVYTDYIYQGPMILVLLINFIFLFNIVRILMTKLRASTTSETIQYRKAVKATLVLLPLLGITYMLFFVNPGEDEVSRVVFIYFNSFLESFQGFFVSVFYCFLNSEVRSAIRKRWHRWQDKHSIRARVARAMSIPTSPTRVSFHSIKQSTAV
How it was run: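 A CRF1R-overexpressing CHO-K1 line (clone 2) was grown in F12/10% FBS/G418 and frozen in aliquots before use. The cAMP assay followed the preceding procedure, with 100% activation defined by Sauvagine at 100 nM.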

[4] = In vitro plasma stability, rat plasma (Example 19.11); assay type: in vitro ADME, Sprague Dawley rats; parameters: remaining at 2 h: dose or concentration left out as unconfirmed; settings: male, Sprague Dawley, rat, plasma, 37° C.
Description: as §1

[5] = pH 7.4, 100 mM phosphate buffer
[6] = 0% HSA, CRF1R CHO-K1 clone 2, read-out: EC50 [nM] 0% HSA
[7] = Table 20 side-to-side comparison, read-out: CRF1 EC50

| Compound | solubility at 1 h ([1]; pH 4.5, 100 mM acetate buffer) [µg/mL] | solubility at 1 h [1, 5] [µg/mL] | remaining at 2 h [2] [%] | EC50 (human CRF2α receptor) [nM] | % loss (chemical stability) ([3]; pH 4.5) [%] | % loss (chemical stability) ([3]; pH 7.4) [%] | EC50 (CRF1R receptor; [6]) [nM] | Emax (CRF1R receptor; CRF1R CHO-K1 clone 2) [%] | EC50 (CRF1R receptor; [7]) [nM] | CRF1/CRF2 ratio (CRF1R receptor) | remaining at 2 h [4] [%] |
| --- | --- | --- | --- | --- | --- | --- | --- | --- | --- | --- | --- |
| CC[C@H](C)[C@H](N)C(=O)N[C@H](C(=O)N[C@@H](CC(C)C)C(=O)N[C@@H](CO)C(=O)N[C@@H](CC(C)C)C(=O)N[C@@H](CC(=O)O)C(=O)N[C@@H](C(=O)N1CCC[C@H]1C(=O)N[C@H](C(=O)N[C@@H](CCCCN)C(=O)N[C@@H](CC(C)C)C(=O)N[C@@H](CCCCNC(=O)CC[C@H](NC(=O)CCCCCCCCCCCCCCC(=O)O)C(=O)O)C(=O)N[C@@H](CCC(N)=O)C(=O)N[C@H](C(=O)N[C@@H](CC(C)C)C(=O)N[C@@H](CC(C)C)C(=O)N[C@@H](CCCCN)C(=O)N[C@@H](CCC(N)=O)C(=O)N[C@@H](CCC(=O)O)C(=O)N[C@@H](CCCNC(=N)N)C(=O)N[C@@H](CCC(N)=O)C(=O)N[C@@H](CCCCN)C(=O)N[C@@H](CCCCN)C(=O)NC(C)(C)C(=O)N[C@@H](CCCNC(=N)N)C(=O)N[C@@H](CCC(N)=O)C(=O)N[C@@H](CCCCN)C(=O)N[C@@H](C)C(=O)N[C@@H](CCC(=O)O)C(=O)N[C@@H](CCCCN)C(=O)N[C@@H](CC(N)=O)C(=O)N[C@@H](CCCCN)C(=O)N[C@@H](CCC(N)=O)C(=O)N[C@H](C(=O)N[C@@H](CC(C)C)C(=O)N[C@@H](C)C(=O)N[C@@H](CCC(N)=O)C(=O)N[C@H](C(N)=O)C(C)C)[C@@H](C)CC)[C@@H](C)CC)[C@@H](C)CC)C(C)C)C(C)C [compound 189] (H-IVLSLD[dV]PIKLK([γGlu-C16 diacid])QILLKQERQKK[Aib]RQKAEKNKQILAQV-NH2; N-terminus assumed) | 9000 (≈ 1860 µM) | 6300 (≈ 1300 µM) | 97 | 3.49 | 0 | 48 | > 100 | 15 | > 100 | >500 | 101 |
| CC[C@H](C)[C@H](N)C(=O)N[C@H](C(=O)N[C@@H](CC(C)C)C(=O)N[C@@H](CO)C(=O)N[C@@H](CC(C)C)C(=O)N[C@@H](CC(=O)O)C(=O)N[C@@H](C(=O)N1CCC[C@H]1C(=O)N[C@H](C(=O)N[C@@H](CCCCN)C(=O)N[C@@H](CC(C)C)C(=O)N[C@@H](CCCCNC(=O)CC[C@H](NC(=O)CCCCCCCCCCCCCCC(=O)O)C(=O)O)C(=O)N[C@@H](CCC(N)=O)C(=O)N[C@H](C(=O)N[C@@H](CC(C)C)C(=O)N[C@@H](CC(C)C)C(=O)N[C@@H](CCCCN)C(=O)N[C@@H](CCC(N)=O)C(=O)N[C@@H](CCC(=O)O)C(=O)N[C@@H](CCCNC(=N)N)C(=O)N[C@@H](CCC(N)=O)C(=O)N[C@@H](CCCCN)C(=O)N[C@@H](CCCCN)C(=O)N[C@@H](CCC(N)=O)C(=O)N[C@@H](CCCNC(=N)N)C(=O)N[C@@H](CCC(=O)O)C(=O)N[C@@H](CCC(N)=O)C(=O)N[C@@H](C)C(=O)N[C@@H](CCC(=O)O)C(=O)N[C@@H](CCCCN)C(=O)N[C@@H](CC(N)=O)C(=O)N[C@@H](CCCCN)C(=O)N[C@@H](CCC(N)=O)C(=O)N[C@H](C(=O)N[C@@H](CC(C)C)C(=O)N[C@@H](CCC(=O)O)C(=O)N[C@@H](CCC(N)=O)C(=O)N[C@H](C(N)=O)C(C)C)[C@@H](C)CC)[C@@H](C)CC)[C@@H](C)CC)C(C)C)C(C)C [compound 190] (H-IVLSLD[dV]PIKLK([γGlu-C16 diacid])QILLKQERQKKQREQAEKNKQILEQV-NH2; N-terminus assumed) | 8500 (≈ 1720 µM) | 8500 (≈ 1720 µM) | 100 | 2.47 | 0 | 35 | > 100 | 12 | > 100 | >500 | 92 |
| CC[C@H](C)[C@H](N)C(=O)N[C@H](C(=O)N[C@@H](CC(C)C)C(=O)N[C@@H](CO)C(=O)N[C@@H](CC(C)C)C(=O)N[C@@H](CC(=O)O)C(=O)N[C@@H](C(=O)N1CCC[C@H]1C(=O)N[C@H](C(=O)N[C@@H](CCCCN)C(=O)N[C@@H](CC(C)C)C(=O)N[C@@H](CCCCNC(=O)CC[C@H](NC(=O)CCCCCCCCCCCCCCC(=O)O)C(=O)O)C(=O)N[C@@H](CCC(N)=O)C(=O)N[C@H](C(=O)N[C@@H](CC(C)C)C(=O)N[C@@H](CC(C)C)C(=O)N[C@@H](CCCCN)C(=O)N[C@@H](CCC(N)=O)C(=O)N[C@@H](CCC(=O)O)C(=O)N[C@@H](CCCNC(=N)N)C(=O)N[C@@H](CCC(N)=O)C(=O)N[C@@H](CCCCN)C(=O)N[C@@H](CCCCN)C(=O)N[C@@H](CCC(N)=O)C(=O)N[C@@H](CCCNC(=N)N)C(=O)N[C@@H](CCC(=O)O)C(=O)N[C@@H](CCCCN)C(=O)N[C@@H](C)C(=O)N[C@@H](CCC(=O)O)C(=O)N[C@@H](CCCCN)C(=O)N[C@@H](CC(N)=O)C(=O)N[C@@H](CCCCN)C(=O)N[C@@H](CCC(N)=O)C(=O)N[C@H](C(=O)N[C@@H](CC(C)C)C(=O)N[C@@H](C)C(=O)N[C@@H](CCC(N)=O)C(=O)N[C@H](C(N)=O)C(C)C)[C@@H](C)CC)[C@@H](C)CC)[C@@H](C)CC)C(C)C)C(C)C [compound 191] (H-IVLSLD[dV]PIKLK([γGlu-C16 diacid])QILLKQERQKKQREKAEKNKQILAQV-NH2) | 8500 (≈ 1740 µM) | 9000 (≈ 1840 µM) | 96 | 2.68 | 0 | 54 | > 100 | 12.5 |  |  | 85 |
